# Measurements as given in patent US20090131431A1, “Pyrazolo[3,4-b]pyridine compounds, and their use as a PDE4 inhibitors” (priority 2005, published 2009).
# Structures can show the parent of a compound that is named as a salt.
# Molecular target: T1, PDE4B (human recombinant) (Homo sapiens, UniProt Q07343)
# T1 construct: made in house
# Test: Inhibition of PDE4B activity: SPA and/or Fluorescence Polarisation (FP) assay
# Format: biochemical
# Details: one reading (n=1) or average of 2 or more readings, read-out: PDE4B pIC50 (±about 0.5) (converted)
# Method in brief: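 Human recombinant PDE4B activity measured by SPA with [3H]cAMP at about 10 nM, 1 h at ambient temperature, enzyme set for ≤20% substrate hydrolysis, or by IMAP FP with Fl-cAMP at about 40 nM, 40 min at ambient temperature under linear conditions. Inhibition curves fitted; values reported as pIC50.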
# T1 sequence (Q07343 1-564 isoform Q07343-2): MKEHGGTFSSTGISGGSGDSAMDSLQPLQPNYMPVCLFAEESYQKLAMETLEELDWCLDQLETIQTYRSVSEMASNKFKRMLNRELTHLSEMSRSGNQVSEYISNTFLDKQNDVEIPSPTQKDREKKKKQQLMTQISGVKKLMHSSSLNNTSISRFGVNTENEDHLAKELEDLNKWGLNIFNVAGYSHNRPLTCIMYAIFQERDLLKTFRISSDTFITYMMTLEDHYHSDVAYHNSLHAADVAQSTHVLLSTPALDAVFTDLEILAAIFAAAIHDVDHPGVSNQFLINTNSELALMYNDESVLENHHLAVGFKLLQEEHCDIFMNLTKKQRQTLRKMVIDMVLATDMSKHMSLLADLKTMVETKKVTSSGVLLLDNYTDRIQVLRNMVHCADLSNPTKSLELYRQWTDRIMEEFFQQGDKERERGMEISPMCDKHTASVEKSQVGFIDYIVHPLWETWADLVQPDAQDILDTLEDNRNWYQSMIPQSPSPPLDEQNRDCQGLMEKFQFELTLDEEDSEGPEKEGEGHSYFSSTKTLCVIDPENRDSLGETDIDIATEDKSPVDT
row,IC50,Compound
1,0.01 to 0.1 nM,"CCn1ncc2c(NC3CCOCC3)c(CNC(=O)c3ccc(C(C)(C)C)cc3O)c(C)nc21 [Example 285, 4-(1,1-dimethylethyl)-N-{[1-ethyl-6-methyl-4-(tetrahydro-2H-pyran-4-ylamino)-1H-pyrazolo[3,4-b]pyridin-5-yl]methyl}-2-hydroxybenzamide]"
2,0.126 to 1 nM,"CCn1ncc2c(NC3CCOCC3)c(CNC(=O)c3ccc4c(=O)[nH][nH]c4c3)c(C)nc21 [Example 286, N-{[1-ethyl-6-methyl-4-(tetrahydro-2H-pyran-4-ylamino)-1H-pyrazolo[3,4-b]pyridin-5-yl]methyl}-3-oxo-2,3-dihydro-1H-indazole-6-carboxamide]"
3,0.126 to 1 nM,"CCn1ncc2c(NC3CCOCC3)c(CNC(=O)c3ccc4c(c3)CCCS4(=O)=O)c(C)nc21 [Example 287, N-{[1-ethyl-6-methyl-4-(tetrahydro-2H-pyran-4-ylamino)-1H-pyrazolo[3,4-b]pyridin-5-yl]methyl}-3,4-dihydro-2H-1-benzothiopyran-6-carboxamide 1,1-dioxide]"
4,0.01 to 0.1 nM,"CCn1ncc2c(NC3CCOCC3)c(CNC(=O)c3ccc(N4CCCC4=O)cc3)c(C)nc21 [Example 288, N-{[1-ethyl-6-methyl-4-(tetrahydro-2H-pyran-4-ylamino)-1H-pyrazolo[3,4-b]pyridin-5-yl]methyl}-4-(2-oxo-1-pyrrolidinyl)benzamide]"
5,0.126 to 1 nM,"CCc1nc2c(cnn2CC)c(NC2CCOCC2)c1CNC(=O)N1CCCC1 [Example 289, N-{[1,6-diethyl-4-(tetrahydro-2H-pyran-4-ylamino)-1H-pyrazolo[3,4-b]pyridin-5-yl]methyl}-1-pyrrolidinecarboxamide]"
6,0.126 to 1 nM,"CCc1nc2c(cnn2CC)c(NC2CCOCC2)c1CNC(=O)N1CCCCC1 [Example 290, N-{[1,6-diethyl-4-(tetrahydro-2H-pyran-4-ylamino)-1H-pyrazolo[3,4-b]pyridin-5-yl]methyl}-1-piperidinecarboxamide]"
7,0.126 to 1 nM,"CCn1ncc2c(NC3CCOCC3)c(CN3Cc4ccccc4C3=O)c(C)nc21 [Example 300, 2-{[1-ethyl-6-methyl-4-(tetrahydro-2H-pyran-4-ylamino)-1H-pyrazolo[3,4-b]pyridin-5-yl]methyl}-2,3-dihydro-1H-isoindol-1-one]"
8,0.126 to 1 nM,"CCn1ncc2c(NC3CCOCC3)c(CN3Cc4occc4C3=O)c(C)nc21 [Example 301, 5-{[1-ethyl-6-methyl-4-(tetrahydro-2H-pyran-4-ylamino)-1H-pyrazolo[3,4-b]pyridin-5-yl]methyl}-5,6-dihydro-4H-furo[2,3-c]pyrrol-4-one]"
9,0.01 to 0.1 nM,"CCc1nc2c(cnn2CC)c(NC2CCN(C(N)=O)CC2)c1CNC(=O)c1ccc(C(C)(C)C)cc1O [Example 302, 4-({5-[({[4-(1,1-dimethylethyl)-2-hydroxyphenyl]carbonyl}amino)-methyl]-1,6-diethyl-1H-pyrazolo[3,4-b]pyridin-4-yl}amino)-1-piperidine-carboxamide Formate]"
10,0.01 to 0.1 nM,"CCn1ncc2c(NC3CCN(C(N)=O)CC3)c(CNC(=O)c3ccc(N4CCOCC4)cc3)c(C)nc21 [Example 303, 4-({1-ethyl-6-methyl-5-[({[4-(4-morpholinyl)phenyl]-carbonyl}amino)methyl]-1H-pyrazolo[3,4-b]pyridin-4-yl}amino)-1-piperidine-carboxamide, Formate Salt]"
11,0.01 to 0.1 nM,"CCc1nc2c(cnn2CC)c(NC2CCN(C(N)=O)CC2)c1CNC(=O)c1ccc(NC(C)=O)c2c1OCC2 [Example 304, 4-({5-[({[4-(acetylamino)-2,3-dihydro-1-benzofuran-7-yl]carbonyl}amino)methyl]-1,6-diethyl-1H-pyrazolo[3,4-b]pyridin-4-yl}amino)-1-piperidinecarboxamide]"
12,0.01 to 0.1 nM,"CCn1ncc2c(NC3CCN(C(N)=O)CC3)c(CNC(=O)c3ccc(NC(C)=O)c4c3OCC4)c(C)nc21 [Example 305, 4-({5-[({[4-(acetylamino)-2,3-dihydro-1-benzofuran-7-yl]carbonyl}amino)methyl]-1-ethyl-6-methyl-1H-pyrazolo[3,4-b]pyridin-4-yl}amino)-1-piperidinecarboxamide]"
13,0.01 to 0.1 nM,"CCc1nc2c(cnn2CC)c(NC2CCOCC2)c1CNC(=O)c1ccc(NC(C)=O)c2c1OCC2 [Example 306, 4-(acetylamino)-N-{[1,6-diethyl-4-(tetrahydro-2H-pyran-4-ylamino)-1H-pyrazolo[3,4-b]pyridin-5-yl]methyl}-2,3-dihydro-1-benzofuran-7-carboxamide]"
14,0.126 to 1 nM,"CCc1nc2c(cnn2CC)c(NC2CCOCC2)c1CNC(=O)c1ccc(F)cc1 [Example 307, N-{[1,6-diethyl-4-(tetrahydro-2H-pyran-4-ylamino)-1H-pyrazolo[3,4-b]pyridin-5-yl]methyl}-4-fluorobenzamide]"
15,0.126 to 1 nM,"CCc1nc2c(cnn2CC)c(NC2CCOCC2)c1CNC(=O)c1ccc(F)cc1F [Example 308, N-{[1,6-diethyl-4-(tetrahydro-2H-pyran-4-ylamino)-1H-pyrazolo[3,4-b]pyridin-5-yl]methyl}-2,4-difluorobenzamide]"
16,0.126 to 1 nM,"CCc1nc2c(cnn2CC)c(NC2CCOCC2)c1CNC(=O)c1csc(C)n1 [Example 309, N-{[1,6-diethyl-4-(tetrahydro-2H-pyran-4-ylamino)-1H-pyrazolo[3,4-b]pyridin-5-yl]methyl}-2-methyl-1,3-thiazole-4-carboxamide]"
17,0.126 to 1 nM,"CCc1nc2c(cnn2CC)c(NC2CCOCC2)c1CNC(=O)c1coc(C)n1 [Example 310, N-{[1,6-diethyl-4-(tetrahydro-2H-pyran-4-ylamino)-1H-pyrazolo[3,4-b]pyridin-5-yl]methyl}-2-methyl-1,3-oxazole-4-carboxamide]"
18,0.01 to 0.1 nM,"CCc1nc2c(cnn2CC)c(NC2CCOCC2)c1CNC(=O)c1cnc(C)s1 [Example 311, N-{[1,6-diethyl-4-(tetrahydro-2H-pyran-4-ylamino)-1H-pyrazolo[3,4-b]pyridin-5-yl]methyl}-2-methyl-1,3-thiazole-5-carboxamide]"
19,0.126 to 1 nM,"CCn1ncc2c(NC3CCOCC3)c(CNC(=O)c3ccc(F)cc3F)c(C)nc21 [Example 312, N-{[1-ethyl-6-methyl-4-(tetrahydro-2H-pyran-4-ylamino)-1H-pyrazolo[3,4-b]pyridin-5-yl]methyl}-2,4-difluorobenzamide]"
20,0.126 to 1 nM,"CCn1ncc2c(NC3CCOCC3)c(CNC(=O)c3ccc(F)cc3)c(C)nc21 [Example 313, N-{[1-ethyl-6-methyl-4-(tetrahydro-2H-pyran-4-ylamino)-1H-pyrazolo[3,4-b]pyridin-5-yl]methyl}-4-fluorobenzamide]"
21,0.126 to 1 nM,"CCn1ncc2c(NC3CCOCC3)c(CN3Cc4ccc(F)cc4C3=O)c(C)nc21 [Example 314, 2-{[1-ethyl-6-methyl-4-(tetrahydro-2H-pyran-4-ylamino)-1H-pyrazolo[3,4-b]pyridin-5-yl]methyl}-6-fluoro-2,3-dihydro-1H-isoindol-1-one]"
22,0.01 to 0.1 nM,"CCc1nc2c(cnn2CC)c(NC2CCOCC2)c1CN1Cc2ccc(F)cc2C1=O [Example 315, 2-{[1,6-diethyl-4-(tetrahydro-2H-pyran-4-ylamino)-1H-pyrazolo[3,4-b]pyridin-5-yl]methyl}-6-fluoro-2,3-dihydro-1H-isoindol-1-one]"
23,0.01 to 0.1 nM,"CCn1ncc2c(NC3CCOCC3)c(CN3Cc4ccc(C(F)(F)F)cc4C3=O)c(C)nc21 [Example 316, 2-{[1-ethyl-6-methyl-4-(tetrahydro-2H-pyran-4-ylamino)-1H-pyrazolo[3,4-b]pyridin-5-yl]methyl}-6-(trifluoromethyl)-2,3-dihydro-1H-isoindol-1-one]"
24,0.01 to 0.1 nM,"CCc1nc2c(cnn2CC)c(NC2CCOCC2)c1CN1Cc2ccc(C(F)(F)F)cc2C1=O [Example 317, 2-{[1,6-diethyl-4-(tetrahydro-2H-pyran-4-ylamino)-1H-pyrazolo[3,4-b]pyridin-5-yl]methyl}-6-(trifluoromethyl)-2,3-dihydro-1H-isoindol-1-one]"
25,0.126 to 1 nM,"CCn1ncc2c(NC3CCOCC3)c(CNC(=O)c3coc(C)n3)c(C)nc21 [Example 318, N-{[1-ethyl-6-methyl-4-(tetrahydro-2H-pyran-4-ylamino)-1H-pyrazolo[3,4-b]pyridin-5-yl]methyl}-2-methyl-1,3-oxazole-4-carboxamide]"
26,0.126 to 1 nM,"CCn1ncc2c(NC3CCOCC3)c(CNC(=O)c3csc(C(F)(F)F)n3)c(C)nc21 [Example 319, N-{[1-ethyl-6-methyl-4-(tetrahydro-2H-pyran-4-ylamino)-1H-pyrazolo[3,4-b]pyridin-5-yl]methyl}-2-(trifluoromethyl)-1,3-thiazole-4-carboxamide]"
27,0.126 to 1 nM,"CCn1ncc2c(NC3CCOCC3)c(CNC(=O)c3cnc(C)s3)c(C)nc21 [Example 322, N-{[1-ethyl-6-methyl-4-(tetrahydro-2H-pyran-4-ylamino)-1H-pyrazolo[3,4-b]pyridin-5-yl]methyl}-2-methyl-1,3-thiazole-5-carboxamide]"
28,0.01 to 0.1 nM,"CCc1nc2c(cnn2CC)c(NC2CCOCC2)c1CNC(=O)c1ccc(C(F)(F)F)o1 [Example 323, N-{[1,6-diethyl-4-(tetrahydro-2H-pyran-4-ylamino)-1H-pyrazolo[3,4-b]pyridin-5-yl]methyl}-5-(trifluoromethyl)-2-furancarboxamide]"
29,0.126 to 1 nM,"CCn1ncc2c(NC3CCOCC3)c(CNC(=O)c3ccc(C(F)(F)F)o3)c(C)nc21 [Example 324, N-{[1-ethyl-6-methyl-4-(tetrahydro-2H-pyran-4-ylamino)-1H-pyrazolo[3,4-b]pyridin-5-yl]methyl}-5-(trifluoromethyl)-2-furancarboxamide]"
30,0.126 to 1 nM,"CCc1nc2c(cnn2CC)c(NC2CCOCC2)c1CNC(=O)c1ccc(C#N)nc1 [Example 325, 6-cyano-N-{[1,6-diethyl-4-(tetrahydro-2H-pyran-4-ylamino)-1H-pyrazolo[3,4-b]pyridin-5-yl]methyl}-3-pyridinecarboxamide]"
